What is called IC50 is the concentration needed to halve the response being measured. High values mean lower potency, low ones higher potency.

Consider 3 compounds from BindingDB's records for patent US11787780 (Corcept Therapeutics, 2023).

This test addresses T1, Glucocorticoid receptor (Homo sapiens, UniProt P04150).
T1 sequence (P04150 whole entry): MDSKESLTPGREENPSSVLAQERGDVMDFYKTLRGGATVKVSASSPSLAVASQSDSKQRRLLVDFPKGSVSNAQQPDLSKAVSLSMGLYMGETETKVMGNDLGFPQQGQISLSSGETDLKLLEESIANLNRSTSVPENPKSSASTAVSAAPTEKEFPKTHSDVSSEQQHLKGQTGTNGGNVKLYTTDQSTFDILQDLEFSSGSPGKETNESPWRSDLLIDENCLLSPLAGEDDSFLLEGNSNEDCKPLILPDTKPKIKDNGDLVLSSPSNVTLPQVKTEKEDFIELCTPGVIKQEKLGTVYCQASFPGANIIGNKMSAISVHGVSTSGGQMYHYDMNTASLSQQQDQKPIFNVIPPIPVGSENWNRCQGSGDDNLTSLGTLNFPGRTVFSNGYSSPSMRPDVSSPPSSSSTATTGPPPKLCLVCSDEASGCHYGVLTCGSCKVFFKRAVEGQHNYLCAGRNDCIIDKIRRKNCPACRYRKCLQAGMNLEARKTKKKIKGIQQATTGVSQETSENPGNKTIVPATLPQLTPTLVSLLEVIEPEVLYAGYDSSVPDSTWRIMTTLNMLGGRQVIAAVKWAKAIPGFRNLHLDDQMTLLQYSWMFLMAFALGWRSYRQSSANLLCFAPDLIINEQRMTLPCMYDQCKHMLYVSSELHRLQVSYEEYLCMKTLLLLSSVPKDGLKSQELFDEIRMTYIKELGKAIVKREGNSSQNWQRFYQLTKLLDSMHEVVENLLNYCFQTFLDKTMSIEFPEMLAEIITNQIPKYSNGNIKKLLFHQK
The test can be described thus: GR Binding Assay. On the procedure: Binding of test compounds to the glucocorticoid receptor (GR) is determined using a fluorescence polarisation (FP) assay utilising a recombinant ligand binding domain (LBD) of GR. The test compounds are assessed by their ability to displace a fluorescently tagged ligand and detection of the resulting decrease in fluorescence polarisation.

Compound `CCCn1cc(S(=O)(=O)N2CCC(Cc3ccccn3)(c3cc4cnn(-c5ccc(F)cc5)c4cc3C)C2)cn1` (stereo not drawn) [US11787780, Example 152] gave an IC50 of 13 nM.

Take `Cc1cc2c(cnn2-c2ccc(=O)n(C)c2)cc1C1(Cc2ccccc2)CCN(S(=O)(=O)c2cnn(C(C)C)n2)C1` (stereo not drawn) [US11787780, Example 320]: the IC50 came out at 12 nM.

The compound `Cc1cc2c(cnn2-c2ccc(F)cc2)cc1C1(Cc2ccccc2)CC(O)N(Cc2ccccc2)C1=O` (stereo not drawn) [US11787780, Example 336] registered an IC50 of 180 nM.
